{
  "source": "patent US20240158447A1",
  "about": "“PEPTIDES FOR USE IN THE TREATMENT OR PREVENTION OF MYOCARDIAL DAMAGE” (THE UNIVERSITY OF WESTERN AUSTRALIA, priority 2020, published 2024)",
  "key": {"Cavβ2 subunit": {"biological_target": "T1, Cavβ2 subunit (Homo sapiens, UniProt Q08289)", "T1 construct": "incubated with 100 μg of Cavβ2 subunit from cardiac homogenate and cytoplasmic protein preparation; from tissue; host or cells: cardiac homogenate and cytoplasmic protein preparation", "assay": "Competitive binding affinity assay, biotinylated AID affinity beads vs Cavβ2 subunit (Example 9)", "conditions": "dose-response 0, 10 nM to 100 μM peptide; FIG. 9", "experimental": "In this experiment, a binding affinity assay was utilized to examine the binding efficacy of AID peptide variants presented in Table 8, compared to the original AID peptide.\nBiotinylation of original AID (no TAT): For each reaction (a dose-response curve consisted of 6 reactions), 0.02 nM […] was incubated in biotinylation solution (0.1M MES buffer containing 1 nM amine-PEG11-biotin and 0.2 nM EDC) for 2 hrs at room temperature with agitation (400 rpm). Affinity beads (Dynabeads M-280 Streptavidin, ThermoFisher Scientific) were then incubated with biotinylated AID peptide for 30 min at room temperature with agitation (400 rpm). Afterwards, biotinylated AID-coated affinity beads were washed, initially in 0.1% BSA in PBS and then three times in PBS for 3 min.\nBiochem J. 2000; 348 Pt 3:657-65; Haase H, Striessnig J, Holtzhauer M, Vetter R, Glossmann H. A rapid procedure for the purification of cardiac 1,4-dihydropyridine receptors from porcine heart. Eur J Pharmacol. 1991; 207(1):51-9).\nCompetitive binding of AID-affinity beads and Cavβ2 subunit: Cavβ2-AID mutant peptide dilutions were then incubated with biotinylated AID-coated affinity beads for 2 hrs at room temperature with gentle agitation (400 rpm). Samples were placed on a magnetic stand to allow affinity beads to migrate to the magnet. Supernatant was removed and treated with 1× sample buffer (62.5 mM Tris-HCl, pH 6.8, 2% SDS, 10% glycerol, 100 mM DTT, 0.002% Bromophenol Blue) for 5 min at 95° C. Resulting protein was analysed by immunoblot."}, "Guinea pig hearts": {"tested_on": "Guinea pig hearts", "assay": "Myocardial ischemia-reperfusion injury, Langendorff hearts ex vivo (CK, LDH, GSH:GSSG)", "conditions": "for Creatine Kinase (CK) activity in perfusate: FIG. 6(a); for Lactate Dehydrogenase (LDH) activity in perfusate: FIG. 6(b); for GSH:GSSG ratio in whole heart tissue: FIG. 6(c)", "method": "Adult male guinea pigs were anesthetized with pentobarbitone sodium (240 mg/kg) via intraperitoneal injection prior to excision of the heart. Guinea pig hearts were cannulated onto a Langendorff apparatus via the aorta and perfused retrogradely with Ca^2+ containing KHB comprising (in mM): 120 NaCl, 25 NaHCO3, 4.8 KCl, 2.2 MgSO4, 1.2 NaH2PO4, 11 glucose and 1.5 CaCl2 (pH=7.35 with O2/CO2 at 37° C.) at 37° C. for 30 min at a rate of 7 mL/min, followed by 30 min no-flow ischemia, then 30 min reperfusion as previously described.\nPerfusates were collected 20 and 25 min pre-ischemia and 20 and 30 min following reperfusion. A single dose of 0.5-10 μM AID(S)-TAT, AID-TAT, peptide 6 or peptide 7 was added to Ca^2+-containing KHB solution just prior to reperfusion. Creatine Kinase (CK) and Lactate Dehydrogenase (LDH) activity was measured in perfusates collected pre- and post-ischemia, and post-ischemia values normalized to pre-ischemia values.\nFor each sample, 10 μL of perfusate was added to 100 μL CK enzyme reagent (CK NAC-activated diagnostic kit, Randox Laboratories) and the rate of increase in absorbance recorded over 15 min at 30° C. using a spectrophotometer (PowerWave XS, BioTek, 340 nm).\nTo determine LDH activity, 150 μL of each sample was mixed with 50 μL of LDH reagent (50 mM imidazole buffer, 375 μM NADH, pyruvate and 0.05% BSA, pH=7) and the rate of decrease in absorbance recorded over 15 min at 25° C. using a spectrophotometer (PowerWave XS, BioTek, 340 nm).\nGSSG was calculated by subtracting GSH from total glutathione."}, "cTnI.2 wt myocytes [1]": {"tested_on": "cTnI.2 wt myocytes", "assay": "Flavoprotein oxidation response to BayK(−), wt myocytes (Example 10)", "type": "cell-based, mouse", "conditions": "10 μM BayK(−)", "experimental": "(§1) In this experiment wt myocytes were pre-exposed to 0.1, 0.5 or 1 μM for 20 min and assessed changes in flavoprotein oxidation and ψm.\nMeasurement of mitochondrial flavoprotein oxidation: Flavoprotein autofluorescence was used to measure flavoprotein oxidation based on previously described methods (Yaniv Y, Juhaszova M, Lyashkov A E, Spurgeon H A, Sollott S J, Lakatta E G. Ca2+-regulated-cAMP/PKA signaling in cardiac pacemaker cells links ATP supply to demand. J Mol Cell Cardiol. 2011; 51(5):740-8). […] Fluorescent images were acquired at 1 min intervals with 200 ms exposure. Metamorph 6.3 (Version 7.10.3) was used to quantify the signal by manually tracing myocytes. An equivalent region not containing cells was used as background and was subtracted. Fluorescence values recorded over 5 min before and 5 min after addition of drugs were averaged and alterations in fluorescent ratios reported as the percentage increase from the basal average. FCCP (50 μM) and NaCN (40 mM) was added at the end of each experiment to achieve a respective maximal and minimal fluorescence value indicative of maximal and minimal flavoprotein oxidation.\nThe ICA-L agonist BayK(−) was used to activate the channel and assess mitochondrial function. […] FIG. 10 presents the mean+/−SEM of flavoprotein fluorescence from cTnI.2 wt and cTnI-G2035 mutant myocytes before and after exposure to 10 μM BayK(−) in the presence of 1 μM AID(S)-TAT, and increasing concentrations of variant peptides as indicated. N=no. of animals, n=no. of cardiomyocytes. P values shown compared with AID(S)-TAT as determined by the Kruskal-Wallis test."}, "cTnI.2 wt myocytes [2]": {"tested_on": "cTnI.2 wt myocytes", "assay": "Mitochondrial membrane potential (JC-1) response to BayK(−), wt myocytes (Example 10)", "type": "cell-based, mouse", "conditions": "0.5 μM peptide, calcium-free, FIG. 11A", "experimental": "as §1\nMeasurement of mitochondrial membrane potential: The fluorescent indicator 5,5′,6,6′-tetrachloro1,1′,3,3′-tetraethylbenzimidazolylcarbocyanine iodide (JC-1) was used to measure mitochondrial membrane potential (ψm) as previously described (Viola H M, Arthur P G, Hool L C. Transient exposure to hydrogen peroxide causes an increase in mitochondria-derived superoxide as a result of sustained alteration in L-type Ca2+ channel function in the absence of apoptosis in ventricular myocytes. Circ Res. 2007; 100(7):1036-44). […] Images were acquired at 2 min intervals with 50 ms exposure. Metamorph 6.3 (Version 7.10.3) was used to quantify the signal by manually tracing myocytes. An equivalent region not containing cells was used as background and was subtracted. The 580 nm/535 nm ratiometric fluorescence values recorded over 6 min before and 4 min after addition of drugs were averaged and alterations in fluorescent ratios reported as the percentage increase from the basal average. […] In addition, individual 580 and 535 signals were assessed in each experiment to determine whether the fluorescent indicator was accurately measuring ψm. […]\nBased on results obtained from in vitro assessment of flavoprotein oxidation, the effect of 0.5 μM AID-TAT variants on changes in mitochondrial membrane potential (ψm) was further explored. Experiments were performed using JC-1 fluorescence under calcium-free conditions as previously described (Viola H, Johnstone V, Cserne Szappanos H, Richman T, Tsoutsman T, Filipovska A, et al. The L-type Ca(2+) channel facilitates abnormal metabolic activity in the cTnI-G2035 mouse model of hypertrophic cardiomyopathy. J Physiol. 2016; 594(14):4051-70; Viola H M, Shah A A, Johnstone V P A, Cserne Szappanos H, Hodson M P, Hool L C. Characterization and validation of a preventative therapy for hypertrophic cardiomyopathy in a murine model of the disease. Proc Natl Acad Sci U S A. 2020; 117(37):23113-24). […]"}, "[3]": {"tested_on": "cTnI-G203S mutant myocytes", "assay": "Mitochondrial membrane potential (JC-1) response to BayK(−), cTnI-G203S myocytes (Example 10)", "type": "cell-based, mouse", "experimental": "as §1\nMeasurement of mitochondrial membrane potential: The fluorescent indicator 5,5′,6,6′-tetrachloro1,1′,3,3′-tetraethylbenzimidazolylcarbocyanine iodide (JC-1) was used to measure mitochondrial membrane potential (ψm) as previously described (Viola H M, Arthur P G, Hool L C. Transient exposure to hydrogen peroxide causes an increase in mitochondria-derived superoxide as a result of sustained alteration in L-type Ca2+ channel function in the absence of apoptosis in ventricular myocytes. Circ Res. 2007; 100(7):1036-44). […] Images were acquired at 2 min intervals with 50 ms exposure. Metamorph 6.3 (Version 7.10.3) was used to quantify the signal by manually tracing myocytes. An equivalent region not containing cells was used as background and was subtracted. The 580 nm/535 nm ratiometric fluorescence values recorded over 6 min before and 4 min after addition of drugs were averaged and alterations in fluorescent ratios reported as the percentage increase from the basal average. To confirm that the signal was indicative of ψm, 40 mM NaCN was added at the end of each experiment to collapse ψm. In addition, individual 580 and 535 signals were assessed in each experiment to determine whether the fluorescent indicator was accurately measuring ψm. For calcium-free experiments, cells were exposed to calcium-free HBS (supplemented with 3 mM EGTA and 200 nM JC-1) for at least 3 h prior to measuring changes in ψm.\nBased on results obtained from in vitro assessment of flavoprotein oxidation, the effect of 0.5 μM AID-TAT variants on changes in mitochondrial membrane potential (ψm) was further explored. Experiments were performed using JC-1 fluorescence under calcium-free conditions as previously described (Viola H, Johnstone V, Cserne Szappanos H, Richman T, Tsoutsman T, Filipovska A, et al. The L-type Ca(2+) channel facilitates abnormal metabolic activity in the cTnI-G2035 mouse model of hypertrophic cardiomyopathy. J Physiol. 2016; 594(14):4051-70; Viola H M, Shah A A, Johnstone V P A, Cserne Szappanos H, Hodson M P, Hool L C. Characterization and validation of a preventative therapy for hypertrophic cardiomyopathy in a murine model of the disease. Proc Natl Acad Sci U S A. 2020; 117(37):23113-24). […] FIG. 11 presents the mean+/−SE of JC-1 fluorescence from cTnI.2 wt and cTnI-G203S mutant myocytes before and after exposure to 10 μM BayK(−) in the presence of 1 μM AID(S)-TAT, and 0.5 μM of variant peptides as indicated. N=no. of animals, n=no. of cardiomyocytes. P values shown compared with AID(S)-TAT as determined by the Kruskal-Wallis test."}, "[4]": {"conditions": "0.5 μM peptide added just prior to reperfusion"}, "[5]": {"conditions": "1 μM peptide added just prior to reperfusion"}},
  "note": "Entries after “also recorded” stand apart in the source; their conditions may differ.",
  "data": [
    {"substance": "AIDP7-TAT: QQQEEDLKGYLDWITQAE with TAT sequence", "values": [
      {"measurement": "K0.5 values compared to AID peptide", "setting": "Cavβ2 subunit", "result": "decreased K0.5 values"},
      {"measurement": "Creatine Kinase (CK) activity in perfusate", "setting": "Guinea pig hearts; [4]", "result": "reduced compared to the AID(S)-TAT peptide; also recorded: reduced in both P7-TAT (1 μM) and P7-TAT (0.5 μM) compared to the P6-TAT peptide; also recorded: at least as effective as AID-TAT (1 μM)"},
      {"measurement": "Lactate Dehydrogenase (LDH) activity in perfusate", "setting": "Guinea pig hearts; [4]", "result": "reduced compared to the AID(S)-TAT peptide; also recorded: reduced LDH at least as well as AID-TAT (1 μM)"},
      {"measurement": "GSH:GSSG ratio in whole heart tissue", "setting": "Guinea pig hearts; 0.5 μM peptide", "result": "statistically significant increase in the GSH:GSSG ratio, comparable to the AID-TAT samples at 10 μM"},
      {"measurement": "Creatine Kinase (CK) activity in perfusate", "setting": "Guinea pig hearts; [5]", "result": "reduced compared to the AID(S)-TAT peptide; also recorded: reduced in both P7-TAT (1 μM) and P7-TAT (0.5 μM) compared to the P6-TAT peptide"},
      {"measurement": "Lactate Dehydrogenase (LDH) activity in perfusate", "setting": "Guinea pig hearts; [5]", "result": "reduced compared to the AID(S)-TAT peptide"},
      {"measurement": "GSH:GSSG ratio in whole heart tissue", "setting": "Guinea pig hearts; 1 μM peptide", "result": "statistically significant increase in the GSH:GSSG ratio, comparable to the AID-TAT samples at 10 μM"},
      {"measurement": "oxidative stress (CK activity, LDH activity and GSH:GSSG ratio taken together)", "setting": "Guinea pig hearts; same concentration or lower dosages of P7-TAT versus AID-TAT", "result": "more effective than AID-TAT at reducing oxidative stress"},
      {"measurement": "BayK(−) induced increase in flavoprotein oxidation", "setting": "cTnI.2 wt myocytes [1]; 0.5 μM peptide 20 min, FIG. 10B", "result": "effective"},
      {"measurement": "BayK(−) induced increase in flavoprotein oxidation", "setting": "cTnI.2 wt myocytes [1]; 1 μM peptide 20 min, FIG. 10A", "result": "just as effective at attenuating the response in wt myocytes as the original AID-TAT"},
      {"measurement": "BayK(−) induced increase in ψm (JC-1 fluorescence)", "setting": "cTnI.2 wt myocytes [2]", "result": "significantly attenuated the response"},
      {"measurement": "BayK(−) induced increase in ψm (JC-1 fluorescence)", "setting": "[3]; 0.5 μM peptide, calcium-free, FIG. 11B", "result": "significantly attenuated the response"},
      {"measurement": "normalising mitochondrial metabolic activity (in vitro, overall)", "setting": "[3]; flavoprotein oxidation and JC-1 data together", "result": "most effective in normalising mitochondrial metabolic activity"}
    ]}
  ]
}
